From ChEMBL document CHEMBL5120764, “Isarubrolone C Promotes Autophagic Degradation of Virus Proteins via Activating ATG10S in HepG2 Cells” (J Nat Prod, 2022)
Calls of active or inactive are those of the source.

Experiments:
Type in all cases: functional, cell-based
[1] = system: HepG2; test: Upregulation of endogenous ATG10S activated co-localisation of HBx with LC3B in human HepG2 cells co-transfected with HBx and ATG10-misMO by cellular immunofluorescence assay
[2] = system: HepG2; test: Induction of autophagy in human HepG2 cells transfected with ZIKV-NS5 assessed as increase in ZIKV-NS5-LC3B interaction level at 10 uM incubated for 24 hrs in presence of anti-Flag antibodies by co-immunoprecipitation assay
[3] = system: HepG2; test: Induction of autophagy in human HepG2 cells transfected with HCV subgenomic replicon assessed as HCV-CORE/LAMP2 combination at 10 uM incubated for 24 hrs in presence of anti-LC3B antibodies by co-immunoprecipitation assay
[4] = system: HepG2; test: Induction of autophagy in human HepG2 cells transfected with ZIKV-NS5 and gene knockdown by IL28A morpholinos assessed as LC3B and LAMP2 interaction at 10 uM incubated for 24 hrs in presence of anti-LC3B antibodies by co-immunoprecipitation assay
[5] = system: HepG2; test: Induction of autophagy in human HepG2 cells transfected with HIV-RT assessed as increase in HIV-RT-LC3B interaction level at 10 uM incubated for 24 hrs in presence of anti-Flag antibodies by co-immunoprecipitation assay
[6] = system: HepG2; test: Effect on ZIKV-NS5 degradation in human HepG2 cells transfected with ZIKV-NS5 at 10 uM pretreated with proteosome inhibitor MG132 for 12 hrs followed by compound addition and measured after 24 hrs by western blot analysis
[7] = system: HepG2; test: Induction of autophagy in human HepG2 cells transfected with HCV subgenomic replicon assessed as HCV-CORE/LC3B combination at 10 uM incubated for 24 hrs in presence of anti-LAMP2 antibodies by co-immunoprecipitation assay
[8] = system: HepG2; test: Induction of autophagy in human HepG2 cells transfected with HCV subgenomic replicon assessed as HCV-CORE/P62 combination at 10 uM incubated for 24 hrs in presence of anti-LC3B antibodies by co-immunoprecipitation assay
[9] = system: HepG2; test: Downregulation of HBVx in human HepG2 cells transfected with HBVx upto 10 uM incubated for 24 hrs by western blot analysis
[10] = system: HepG2; test: Upregulation of HCV-CORE in human HepG2 cells transfected with HCV sub-replicon and gene knockdown by IL28A morpholinos at 10 uM incubated for 24 hrs by western blot analysis
[11] = system: HepG2; test: Induction of autophagy in human HepG2 cells transfected with HCV subgenomic replicon assessed as HCV-NS5B/P62 combination at 10 uM incubated for 24 hrs in presence of anti-LC3B antibodies by co-immunoprecipitation assay
[12] = system: HepG2; test: Upregulation of LC3B in human HepG2 cells transfected with HCV sub-replicon and gene knockdown by IL28A morpholinos at 10 uM incubated for 24 hrs by western blot analysis
[13] = system: HepG2; test: Upregulation of endogenous ATG10S activated co-localisation of HBx with LAMP2 in human HepG2 cells co-transfected with HBx and ATG10-sMO by cellular immunofluorescence assay
[14] = system: HepG2; test: Downregulation of HBVx in human HepG2 cells co-transfected with HBVx and ATG10-misMO upto 10 uM incubated for 24 hrs by western blot analysis
[15] = system: HepG2; test: Downregulation of ZIKV-NS5 in human HepG2 cells co-transfected with ZIKV-NS5 and ATG10-misMO upto 10 uM incubated for 24 hrs by western blot analysis
[16] = system: HepG2; test: Upregulation of endogenous ATG10S activated co-localisation of ZIKV-NS5 with LAMP2 in human HepG2 cells co-transfected with ZIKV-NS5 and ATG10-misMO by cellular immunofluorescence assay
[17] = system: HepG2; test: Induction of autophagy in human HepG2 cells transfected with HBx assessed as increase in HBx-P62 interaction level at 10 uM incubated for 24 hrs in presence of anti-Flag antibodies by co-immunoprecipitation assay
[18] = system: HepG2; test: Induction of autophagy in human HepG2 cells transfected with HIV-RT and gene knockdown by IL28A morpholinos assessed as LC3B and LAMP2 interaction at 10 uM incubated for 24 hrs in presence of anti-LC3B antibodies by co-immunoprecipitation assay
[19] = system: HepG2; test: Upregulation of ATG10/ATG10S mRNA level in human HepG2 cells transfected with HBx upto 10 uM by RT-PCR analysis; settings: DDE = dose-dependent effect
[20] = system: HepG2; test: Upregulation of LC3B in human HepG2 cells transfected with HIV-RT and gene knockdown by IL28A morpholinos at 10 uM incubated for 24 hrs by western blot analysis
[21] = system: HepG2; test: Upregulation of IL28A mRNA expression level in human HepG2 cells transfected with HCV sub-replicon upto 10 uM by qRT-PCR analysis; settings: DDE = dose-dependent effect

Measured: Activity

CC[C@@H](O)c1nc(C)cc2c1C(=O)c1cc(=O)c3c(c(O)c1-2)O[C@@H]1O[C@H](C)[C@@H](OC)[C@@H](O)[C@]31O
active: [1] | [2] | [3] | [4] | [5] | [6] | [7] | [8] | [9] | [10] | [11] | [12] | [13] | [14] | [15] | [16] | [17] | [18] | [19] Dde | [20] | [21] Dde
